In PMC9653966, “Simultaneous Degradation Study of Isomers in Human Plasma by HPLC-MS/MS and Application of LEDA Algorithm for Their Characterization” (International Journal of Molecular Sciences, 2022):
Read-outs that look alike come from different tables or passages of the source.

Assays:
[1] = Chemical stability test in human plasma (enzymatic hydrolysis, HPLC-MS/MS); assay type: in vitro ADME; conditions: for LEDA195–221 k ± 2SD (degradation rate): LEDA195–221 matrix (Table S4); for behaviour towards plasma enzymes (hydrolysis or stable) / half-life at 1 µM: human plasma; for behaviour towards plasma enzymes (hydrolysis or stable): all sample sets (pure isomer and mixture), up to 120 min at 37 °C; for half-life at 1 µM: human
Description: The present investigation was carried out to evaluate the variation of hydrolytic activity of the human plasma enzymatic system when two potential substrates were simultaneously present. […] Therefore, the human plasma sample solutions, prepared with a mixture of isomers, presented both a substrate and a potential interference, which could influence the enzyme functionality. To correctly monitor this process, it must be possible to distinguish each isomer present in the sample, quantify it with the proper calibration curve and plot its degradation profile. The LEDA algorithm was used to support this investigation and to test its quali-quantitative ability in a complex matrix of human plasma samples. The experimental plan involved the analysis of three series of human plasma samples for each couple of isomers: two series of samples were added to a pure isomer, to check the activity of the plasma enzyme system without interferences, and the last series of samples were spiked with the equimolar mixture of isomers. The series of samples were prepared, as described in Section 4.6 and analyzed with the proper HPLC-MS/MS method. The acquired data were processed with the conventional quantitative method for the series containing the single isomers, and with the LEDA approach for the samples spiked with the mixture of isomers. The samples containing a single isomer were worked out by the integration of quantitative Pi signal and the estimation of PAR value by dividing with IS abundance, and quantitative determination of the analyte in the sample was obtained by using the proper calibration curve. In contrast, in the samples spiking with the mixture of isomers, each proposed LEDA matrix recognized the relative concentration of the isomers present in the sample. Therefore, their abundance in the precursor ion signal (or Ri signal) were assigned, each PAR value calculated by dividing with the IS abundance, and quantitative determination of the analytes in the sample were performed by using the respective precursor ion calibration curve. In Figure 6, an example of the degradation plots of the mixtures of the ELF94 and ELF96 isomers is shown, while all the degradation profiles are reported in the Supplementary Material (Figures S20–S25).
Each sample was prepared by adding 10 µL of proper spiked solution to 100 µL of human plasma matrix in a 1.5 mL microcentrifuge tube. The obtained solution corresponds to 1 μM of analyte that undergo degradation study. Each set of samples was prepared in triplicate and incubated for four different times: 0, 30, 60, and 120 min at 37 °C. Therefore, each stability panel of studied analyte was represented by a batch of 12 samples (4 incubation times, 3 replicates). After the incubation, 300 µL of IS solution was added to the sample and then centrifuged (room temperature for 5 min at 800× g). Then, the supernatant was transferred to autosampler vials, dried under a gentle stream of nitrogen and dissolved in 1.0 mL of 10 mM of formic acid in mQ water:acetonitrile 80:20 solution [23, 24, 25, 27, 28, 29, 30]. Each sample batch included the blank samples of human plasma matrix, prepared as described above, with the addition only of the IS solution. Thus, the analysis of the blank samples can check any interference in the analyte MRM signals due to the matrix components. Three sets of six replicates for each analyte were prepared to evaluate the matrix effect (ME) and the analyte recovery (RE) of the proposed method. The same evaluation was extended to the IS to verify its reliability as a quantitative reference. Set A was prepared by mixing 10 µL of spiked solution with 300 µL of IS solution. Set B was obtained by mixing 100 µL of plasma with 300 µL of acetonitrile and, after centrifugation and separation of the supernatant, by adding 10 µL of spiked solution to each analyte or 300 µL of IS solution. […]

[2] = design: method as in PMID 27882889, PMID 29536775, PMID 35753165, PMID 30947123; conditions: check of hydrolytic activity of the plasma pool; own degradation plot comparable to literature value; cited from earlier work
[3] = human plasma spiked with equimolar mixture of the isomer pair, 1 μM each, 37 °C, LEDA195–221 matrix
[4] = human plasma spiked with isomers mixture
[5] = human plasma spiked with isomers mixture, LEDAall matrix (Table S4)
[6] = human plasma spiked with the pure isomer, 1 μM, 37 °C, 0-120 min, conventional quantitative processing
[7] = human plasma spiked with equimolar mixture of the isomer pair, 1 μM each, 37 °C, LEDA195–221 matrix, read-out: Mix t1/2 ± 2SD
[8] = human plasma spiked with isomers mixture, LEDAall matrix (Table S4), read-out: LEDAall t1/2 ± 2SD
[9] = human plasma spiked with the pure isomer, 1 μM, 37 °C, 0-120 min, conventional quantitative processing, read-out: Pure Isomer t1/2 ± 2SD

Structure (SMILES)	Mix k ± 2SD (degradation rate) [1, 3]	LEDA195–221 k ± 2SD (degradation rate) [1, 4]	LEDAall k ± 2SD (degradation rate) [1, 5]	Pure Isomer k ± 2SD (degradation rate) [1, 6]	behaviour towards plasma enzymes (hydrolysis or stable) [1]	half-life at 1 µM [1, 7] [min]	half-life at 1 µM [1, 8] [min]	half-life at 1 µM [1, 9] [min]	t1/2 of the reference compound in human plasma [2] [min]
COc1cc(/C=C/C(=O)OCCCN(C)CCCCCCOC(=O)c2cc(OC)c(OC)c(OC)c2)cc(OC)c1OC [ELF94]	−0.023 ± 0.005 ln(μM)/min	−0.023 ± 0.005 ln(M)/min	−0.023 ± 0.003 ln(M)/min	−0.014 ± 0.001 ln(μM)/min	hydrolysis	34 ± 14	34 ± 15	49 ± 18	–
CCOC(=O)C(C)c1cccc(C(=O)c2ccccc2)c1 (stereo not drawn) [KEE, Ketoprofen ethyl ester]	–	–	–	–	–	–	–	–	≤ 120
COc1cc(/C=C/C(=O)OCCCCCCN(C)CCCOC(=O)c2cc(OC)c(OC)c(OC)c2)cc(OC)c1OC [ELF96]	<0.006 ln(μM)/min	< 0.006 ln(M)/min	< 0.006 ln(M)/min	<0.006 ln(μM)/min	remained constant	> 120	> 120	> 120	–

Second part, led by results:

Mix k ± 2SD (degradation rate) [1, 3]	LEDA195–221 k ± 2SD (degradation rate) [1, 4]	LEDAall k ± 2SD (degradation rate) [1, 5]	Pure Isomer k ± 2SD (degradation rate) [1, 6]	behaviour towards plasma enzymes (hydrolysis or stable) [1]	half-life at 1 µM [1, 7] [min]	half-life at 1 µM [1, 8] [min]	half-life at 1 µM [1, 9] [min]	Structure (SMILES)	t1/2 of the reference compound in human plasma [2] [min]
−0.019 ± 0.003 ln(μM)/min	−0.019 ± 0.003 ln(M)/min	−0.019 ± 0.005 ln(M)/min	−0.017 ± 0.001 ln(μM)/min	hydrolysis	32 ± 18	32 ± 19	43 ± 16	COc1cc(/C=C/C(=O)OCCCN(C)CCCCCOC(=O)c2cc(OC)c(OC)c(OC)c2)cc(OC)c1OC [FRA76]	–
<0.006 ln(μM)/min	< 0.006 ln(M)/min	< 0.006 ln(M)/min	<0.006 ln(μM)/min	remained constant	> 120	> 120	> 120	COc1cc(/C=C/C(=O)OCCCCCN(C)CCCOC(=O)c2cc(OC)c(OC)c(OC)c2)cc(OC)c1OC [GDE5]	–
